Data: US11667628B2, “Compounds for imaging tau proteins that accumulate in brain” (National Institutes for Quantum and Radiological Science …, priority 2012, dated 2023)
Blank lines part the entries; values can stand above or below the molecule they belong to.

Legend:
[1] = literature by Zhuang et al.; cited from earlier work
[2] = target: Human T40 (the longest tau isoform formed with 441 amino acid residues) fibrils (Homo sapiens, UniProt P10636); assay: In vitro fluorometric binding assay, recombinant T40 tau fibrils; conditions: for EC50: average±SE, concentration giving half of maximum fluorescence intensity; for λem (nm) T40: detection wavelength; for λem (nm) T40 / λex (nm) T40: compound bound to T40 polymers; for affinity to tau pathologies: fluorometric analysis using Aβ and tau filaments formed in a test tube; for λex (nm) T40: optimal excitation wavelength; for EC50 (Aβ)/EC50 (Tau): ratio of EC50 of Aβ40 fibrils to EC50 of T40 fibrils
Sequence of Human T40 (the longest tau isoform formed with 441 amino acid residues) fibrils (P10636 1-441 isoform P10636-8): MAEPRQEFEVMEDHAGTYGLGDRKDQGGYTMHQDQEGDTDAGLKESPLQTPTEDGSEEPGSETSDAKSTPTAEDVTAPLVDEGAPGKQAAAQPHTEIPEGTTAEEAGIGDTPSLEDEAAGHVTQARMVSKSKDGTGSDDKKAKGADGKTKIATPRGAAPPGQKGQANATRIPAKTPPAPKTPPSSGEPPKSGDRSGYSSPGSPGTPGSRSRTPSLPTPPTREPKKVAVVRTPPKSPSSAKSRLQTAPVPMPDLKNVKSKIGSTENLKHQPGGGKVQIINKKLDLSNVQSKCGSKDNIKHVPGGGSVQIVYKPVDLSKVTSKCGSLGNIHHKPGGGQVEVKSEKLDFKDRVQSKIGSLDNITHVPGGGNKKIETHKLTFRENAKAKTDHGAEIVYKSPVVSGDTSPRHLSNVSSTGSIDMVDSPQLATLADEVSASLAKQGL

Aβ40 fibrils = Aβ40 fibrils (Homo sapiens, UniProt P05067); assay: In vitro fluorometric binding assay, Aβ40 fibrils; conditions: for EC50: average±SE, concentration giving half of maximum fluorescence intensity; for λem (nm) Aβ40: detection wavelength; for λem (nm) Aβ40 / λex (nm) Aβ40: compound bound to Aβ40 polymers; for λex (nm) Aβ40: optimal excitation wavelength
Sequence of Aβ40 fibrils (P05067 672-711 limits assumed): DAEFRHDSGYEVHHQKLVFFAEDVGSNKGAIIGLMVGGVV

[3] = test system: fibrous aggregate pathologies in AD grey matter; assay: In vitro autoradiography, AD frontal cortex sections; assay type: binding, human; conditions: up to 1 nM radioligand
[4] = test system: NFTs in AD brain slices including the hippocampal formation; assay: In vitro autoradiography of AD brains including hippocampal formation; assay type: binding, human; conditions: for total binding after addition of non-radioactive PBB5 (100 μM) and thioflavin-S (10 μM) / signals in hippocampus CAI region and pes hippocampi: 10 nM radioligand; for signals in hippocampus CAI region and pes hippocampi: AD patient's brain slice
Procedure: 12 to 15-month-old non-Tg WT mice and PS19 mice were decapitated, and their brains were frozen and sliced into 20 μm-thick sections in a cryostat (HM560). The sections were placed on slide glass (Matsunami Glass), and kept at −80° C., until an analysis. Similarly, sections of the cerebral cortex were obtained from an AD patient. […] Non-specific bonding was detected in the presence of a 10 μMV non-radioactive ligand. Samples were reacted with [^11C]PBB2 or [^11C]PBB3, and were each washed twice, for 2 minutes, with an ice-cool Tris-HCl buffer solution containing 20% or 10% ethanol, and immersed in ice water for 10 seconds. After that, the sections were dried with warm air, and placed on imaging plates (Fuji Film). The imaging plates were scanned by a BAS500 system (Fuji Film), and autoradiograms were obtained (FIG. 6A).
In order to compare the binding of [^11C]PBB3 and [^11C]PIB to areas inside the human brain where there were plenty of tau pathologies, in vitro autoradiograms were obtained using AD brain slices including the hippocampal formation.

[5] = test system: NFTs in the AD patient's hippocampus; assay: In vivo PET imaging of humans; parameters: species or system human; conditions: same AD and normal control subjects
Source text: 2 subjects with normal cognitive function ([…]; average 73.5 years old), and 3 AD patients ([…] years old; average 72 years old) were employed for this study. All the subjects were males, and all the AD patients were diagnosed in accordance with the standards of the National Institute of Neurological and Communicative Diseases and Stroke/Alzheimer's Disease and Related Disorders Association (NINCDS-ADRDA). The clinical dementia rating scale was 0 for both normal subjects, and ranged from 1 to 2 with the AD patients. Their cognitive function was evaluated by a mini-mental state examination (MMSE). […] During the [^11C]PBB-PET scanning, artery blood samples are obtained 10, 20, 30, 40, 50, 60, 70, 80, 90, 100, and 110 seconds after the injection, and 2, 2.5, 3, 4, 5, 6, 7, 8, 9, 10, 12, 15, 20, 25, 30, 40, 50, 60 and 70 minutes after the injection, and the amount of radioactivity in the plasma was measured. The radioactivity to match [^11C]PBB3 in unmetabolized plasma was measured by HPLC using the samples from 3, 10, 20, 30 and 60 minutes after the injection (Waters mBondapak C18 column, 7.8 mm×300 mm; acetonitrile/ammonium formate mobile phase, gradient elution=40/60 (0 minutes), 52/48 (6 minutes), 80/20 (7 minutes), 80/20 (8 minutes), 40/60 (9 minutes) and 40/60 (15 minutes); flow rate, 6 mL/minute). […]

Molecule: O=C(O)c1cc(/C=C/c2ccc(/C=C/c3ccc(O)c(C(=O)O)c3)c(F)c2)ccc1O [FSB, (E,E)-1-fluoro-2,5-bis(3-hydroxycarbonyl-4-hydroxy)styrylbenzene]
passing the blood brain barrier [1]: difficulty passing the blood brain barrier

Molecule: CN(C)c1ccc(/C=C/C=C/c2nc3ccccc3s2)cc1 [PBB1, 4-((1E,3E)-4-(benz[d]thiazole-2-yl)buta-1,3-dienyl)-N,N-dimethylaniline]
EC50 [2]: 402 ± 352 nM
λem (nm) T40 [2]: 565 nm
affinity to tau pathologies [2]: high affinity
λex (nm) T40 [2]: 515 nm
EC50 (Aβ)/EC50 (Tau) [2]: 10.2
EC50 (Aβ40 fibrils): 4110 nM
λem (nm) Aβ40 (Aβ40 fibrils): 565 nm
λex (nm) Aβ40 (Aβ40 fibrils): 440 nm

Molecule: CC[n+]1c(/C=C/C=C/c2ccc(N(C)C)cc2)sc2ccccc21 [PBB5, 2-((1E,3E)-4-(4-(dimethylamino)phenyl)buta-1,3-dienyl)-3-ethylbenzo[d] thiazole-3-ium]
EC50 [2]: 126 ± 67 nM
λem (nm) T40 [2]: 685 nm
affinity to tau pathologies [2]: high affinity
λex (nm) T40 [2]: 630 nm
EC50 (Aβ)/EC50 (Tau) [2]: 9.7
EC50 (Aβ40 fibrils): 1220 nM
λem (nm) Aβ40 (Aβ40 fibrils): 685 nm
λex (nm) Aβ40 (Aβ40 fibrils): 635 nm

Molecule: Cc1ccc2c(c1)sc(-c1ccc(N(C)C)cc1)[n+]2C.[Cl-] [Thioflavin-T, reference compound]
λem (nm) T40 [2]: 485 nm
λex (nm) T40 [2]: 445 nm
λem (nm) Aβ40 (Aβ40 fibrils): 495 nm
λex (nm) Aβ40 (Aβ40 fibrils): 445 nm

Molecule: [11CH3]Nc1ccc(/C=C/C=C/c2nc3ccc(O)cc3s2)cc1 [[^11C]PBB2, 2-((1E,3E)-4-(4-([^11C]methylamino)phenyl)buta-1,3-dienyl)benz[d]thiazole-6-ol]
radiolabeling of fibrous aggregate pathologies, AD grey matters [3]: strongly radio-labeled

total binding after addition of non-radioactive PBB5 (100 μM) and thioflavin-S (10 μM) [4]: clearly discarded
binding in cortex region in the side of the collateral sulcus ([4]; compared to [^11C]PIB): more binding
Molecule: [11CH3]Nc1ccc(/C=C/C=C/c2nc3ccc(O)cc3s2)cn1 [[^11C]PBB3, 2-((1E,3E)-4-(6-([^11C]methylamino)pyridine-3-yl)buta-1,3-dienyl)benz[d]thiazole-6-ol]
signals in hippocampus CAI region and pes hippocampi [4]: Strong [^11C]PBB3 signals were observed
radiolabeling of fibrous aggregate pathologies, AD grey matters [3]: strongly radio-labeled
PET signal in hippocampal formation of AD patient compared to NC [5]: increased

Molecule: [11CH3]Nc1ccc(-c2nc3ccc(O)cc3s2)cc1 [[^11C]PIB, reference compound]
total binding after addition of non-radioactive PBB5 (100 μM) and thioflavin-S (10 μM) [4]: clearly discarded, except for the white matter
signals in hippocampus CAI region and pes hippocampi [4]: no [^11C]PIB signal was observed
PET signal in hippocampal formation of AD patient compared to NC [5]: did not change much

Molecule: thioflavin-S
passing the blood brain barrier [1]: difficulty passing the blood brain barrier
